Assays:
Slc:ddY mice [1] = assay: Mouse novel object recognition test (mORT); format: in vivo
Description: Evaluation of cognitive function using mouse novel object recognition test (hereinafter, may be called “mORT”)
In the mORT using Slc:ddY mice (male, Japan SLC, Inc.) with body weight of 25-45 g or 35-40 g, memory deterioration to familiar subject depending on the interval time between the first trial (training) and the second trial (test) is observed. If the second trial is performed 24 hours after performing the first trial, significant forgetting is observed. […] […] (discrimination index as indexes for cognitive function are shown: 0.5% MC receiving group, 0.054±0.026; 3 mg/kg receiving group, 0.245±0.066.)

Tg 2576 mice [2] = assay: Cognitive function improving action (mORT) using Tg 2576 mice; format: in vivo, mouse; conditions: 30 mg/kg/day mixed in feed for 4 months
Description: (§1) Evaluation of Cognitive Function Improving Action and Aβ Reducing Action Using Tg 2576 Mice
(§2) Four-month-old Tg 2576 mice received compounds involved with the present invention mixed in feed for 4 months. After completion of administration, the mORT test was performed to evaluate cognitive function, then the amount of brain Aβ was measured by ELISA. […] Discrimination index as indexes for evaluating cognitive function were as follows (vehicle, 0.064±0.049, 30 mg/kg/day; 0.330±0.062).

SSTR1 = biological target: T1, SSTR1 (Homo sapiens, UniProt P30872); assay: Binding affinity using cell membrane from cells expressing SSTR subtypes
T1 construct: expressed in transfected cells
T1 sequence (P30872 whole entry, species assumed): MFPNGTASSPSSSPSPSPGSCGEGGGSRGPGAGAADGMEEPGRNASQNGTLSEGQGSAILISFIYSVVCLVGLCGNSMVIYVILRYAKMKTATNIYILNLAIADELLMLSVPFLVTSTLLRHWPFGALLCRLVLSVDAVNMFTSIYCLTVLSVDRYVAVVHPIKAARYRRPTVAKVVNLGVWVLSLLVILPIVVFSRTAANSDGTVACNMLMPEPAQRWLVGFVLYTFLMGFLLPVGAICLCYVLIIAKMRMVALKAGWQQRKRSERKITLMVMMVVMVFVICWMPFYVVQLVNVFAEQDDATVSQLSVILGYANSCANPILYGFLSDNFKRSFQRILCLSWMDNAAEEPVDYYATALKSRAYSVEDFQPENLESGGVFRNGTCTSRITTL

SSTR2 = biological target: T2, SSTR2 (Homo sapiens, UniProt P30874); assay: as above
T2 construct: expressed in transfected cells
T2 sequence (P30874 whole entry, species assumed): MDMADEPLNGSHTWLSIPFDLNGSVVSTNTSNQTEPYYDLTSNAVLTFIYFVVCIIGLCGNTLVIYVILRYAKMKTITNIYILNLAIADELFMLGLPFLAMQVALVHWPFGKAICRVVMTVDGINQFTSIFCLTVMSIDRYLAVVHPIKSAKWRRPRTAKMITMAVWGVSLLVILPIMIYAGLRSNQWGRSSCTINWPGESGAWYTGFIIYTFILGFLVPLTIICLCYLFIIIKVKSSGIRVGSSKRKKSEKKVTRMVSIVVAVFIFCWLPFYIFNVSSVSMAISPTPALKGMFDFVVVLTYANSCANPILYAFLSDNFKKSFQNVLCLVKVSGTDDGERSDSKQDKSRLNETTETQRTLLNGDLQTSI

SSTR5 = biological target: T3, SSTR5 (Homo sapiens, UniProt P35346); assay: as above
T3 construct: expressed in transfected cells
T3 sequence (P35346 whole entry, species assumed): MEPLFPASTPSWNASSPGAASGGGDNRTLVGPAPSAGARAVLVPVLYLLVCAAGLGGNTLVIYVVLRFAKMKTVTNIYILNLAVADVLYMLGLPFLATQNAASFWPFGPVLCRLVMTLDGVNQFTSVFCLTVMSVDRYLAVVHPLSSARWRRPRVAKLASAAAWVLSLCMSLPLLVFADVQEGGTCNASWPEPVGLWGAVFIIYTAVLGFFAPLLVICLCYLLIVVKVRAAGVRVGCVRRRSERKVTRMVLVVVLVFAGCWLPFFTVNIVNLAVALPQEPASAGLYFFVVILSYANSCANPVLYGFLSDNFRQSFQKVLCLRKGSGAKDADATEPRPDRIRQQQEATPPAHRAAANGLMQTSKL

Tg 2576 mice [3] = assay: Aβ reducing action (brain Aβ by ELISA) using Tg 2576 mice; format: in vivo, mouse
Description: as §1, §2

Crlj: WI rats = assay: Acetylcholine release enhancing action, hippocampus microdialysis test using rats; format: in vivo, rat; conditions: 10 mg/kg (oral), 60 minutes after administration, high potassium stimulation
Description: Examination of Acetylcholine Release Enhancing Action with Microdialysis Test Using Rats
A guide cannula was placed into the hippocampus of Crlj: WI rats, and microdialysis was performed by inserting a probe after the animals were recovered. After administering the compounds involved with the present invention, the hippocampus was stimulated by changing the perfusate into the high potassium solution for 15 minutes. Acetylcholine levels in the perfusate were analyzed with a HPLC-ECD apparatus.

[4] = Pharmacokinetic test (PK test) using rodents; format: in vivo; conditions: mouse, brain and plasma; mice, 10 mg/kg oral, an hour and 4 hours after; read-out: brain-plasma concentration ratio
Description: Moreover, it was verified, as the results of a pharmacokinetic test (PK test) using rodents, that the compound of the present invention has more excellent in vivo kinetics, central nervous system penetration, and exposure level, compared with the pyrrolidine derivative described in Patent Literature 1. In particular, the following Test Example 8 was performed.
Pharmacokinetic Test (PK Test) Using Rodents
Compounds of the present invention were orally administered to mice at a dose of 10 mg/kg, and an hour and 4 hours after, the plasma and the brain were collected, concentrations of the administered compounds were measured by LC/MS/MS. As well, protein binding rates in the plasma and the brain were measured with equilibrium dialysis method, and concentrations of non-binding compounds were calculated. The brain-plasma concentration ratio was about 5 in any cases of an hour and 4 hours after for compounds obtained in Examples 7, 14, 15, 16, 17, 18, 20, 21, 27, 40, and 50, which indicated excellent central nervous system penetration.

SSTR3 = biological target: T4, SSTR3 (Homo sapiens, UniProt P32745); assay: Binding affinity using cell membrane from cells expressing SSTR subtypes
T4 construct: expressed in transfected cells
T4 sequence (P32745 whole entry, species assumed): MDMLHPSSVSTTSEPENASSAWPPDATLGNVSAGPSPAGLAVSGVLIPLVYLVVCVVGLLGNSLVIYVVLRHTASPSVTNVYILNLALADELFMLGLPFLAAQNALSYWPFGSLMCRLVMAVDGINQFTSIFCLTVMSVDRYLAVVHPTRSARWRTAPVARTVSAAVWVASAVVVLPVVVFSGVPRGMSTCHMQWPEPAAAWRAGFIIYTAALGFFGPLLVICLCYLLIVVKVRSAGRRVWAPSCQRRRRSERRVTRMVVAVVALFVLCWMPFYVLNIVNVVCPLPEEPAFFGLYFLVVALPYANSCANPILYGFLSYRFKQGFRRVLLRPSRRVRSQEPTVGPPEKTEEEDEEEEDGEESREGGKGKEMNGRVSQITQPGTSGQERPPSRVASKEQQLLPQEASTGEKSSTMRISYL

Slc:ddY mice [5] = assay: Mouse Y-shaped maze test, scopolamine-induced memory impairment; format: in vivo; conditions: for spontaneous alternations: Scopolamine HBr 0.6 mg/kg subcutaneous
Description: Evaluation of amelioration in cognitive impairment using mouse Y-shaped maze test (hereinafter, may be called “Y-maze test”)
In the Y-maze test using Slc:ddY mice (male, Japan SLC, Inc.) with body weight of 25-35 g or 27-30 g, when 0.6 mg/kg of Scopolamine HBr (cat. No. S0929, Sigma Aldrich, USA) is subcutaneously administered to mice, memory impairment is caused, and reducing in spontaneous alternation is observed. Accordingly, mice were pre-treated by orally receiving compounds involved with the present invention, and ameliorating action in memory impairment was evaluated. […] (hereinafter, spontaneous alternations in each group in Example 21 are shown: 0.5% MC receiving group, 71.2±3.5; Scopolamine receiving group, 47.5±2.6; 1 mg/kg receiving group, 60.7±2.6; 3 mg/kg receiving group, 64.6±2.2.)

[6] = 3 mg/kg oral, given after the first trial

Ki (SSTR1): 1.57 µM
Ki (SSTR2): > 5 µM
Ki (SSTR5): > 5 µM
Kp [4]: ~5
Ki (SSTR3): > 3 µM
SMILES: CN1CCC[C@H](C(=O)NC(C)(C)c2cc(Cl)ccc2Cl)C1 [Example 21, (3S)—N-[2-(2,5-dichlorophenyl)propane-2-yl]-1-methylpiperidine-3-carboxamide]
memory enhancing action (Slc:ddY mice [1]; 3 mg/kg (oral), administered before the first trial): significant memory enhancing action
discrimination index (Slc:ddY mice [1]; 3 mg/kg oral, administered before the first trial, second trial 24 hours later): 0.214±0.072
discrimination index (Slc:ddY mice [1]; [6]): 0.245±0.066
memory enhancing action (Slc:ddY mice [1]; [6]): significant memory enhancing action
cognitive function improving action (Tg 2576 mice [2]): significant cognitive function improving action
discrimination index (Tg 2576 mice [2]): 0.330±0.062
hippocampus Aβ42 reducing action compared with the Vehicle (Tg 2576 mice [3]; 100 mg/kg/day): significant hippocampus Aβ42 reducing action
hippocampus Aβ42 (Tg 2576 mice [3]; 100 mg/kg/day mixed in feed for 4 months): 198.11 ± 26.32 pmol/g
acetylcholine level in hippocampus perfusate compared with the Vehicle (Crlj: WI rats): significantly enhanced acetylcholine level
spontaneous alternations (Slc:ddY mice [5]; 1 mg/kg oral): 60.7±2.6
spontaneous alternations (Slc:ddY mice [5]; 3 mg/kg oral): 64.6±2.2
ameliorating action in memory impairment (Slc:ddY mice [5]; at 1 or 3 mg/kg (oral)): significant ameliorating action in memory impairment

From patent US20160221948A1, “NITROGEN-CONTAINING SATURATED HETEROCYCLIC COMPOUND” (SUMITOMO CHEMICAL COMPANY, LIMITED, priority 2013, published 2016)
